# Measured values as given in US20150352207A1, “USE OF ANTIBODIES AGAINST ICAM-1 IN COMBINATION WITH AN ANTI CANCER DRUG IN THE TREATMENT OF PATIENTS” (BIOINVENT INTERNATIONAL AB, priority 2013, published 2015).
# System: HUVEC and HMVEC endothelial cells
# Experiment: PCD in normal ICAM-1 expressing endothelial cells
# Assay type: cell-based
# Conditions: resting or activated HUVEC/HMVEC
# Experimental: Target cells were seeded in 96-well culture plates at a density of 2×10^6 cells/mL culture medium. Titrated concentrations of IgG1 B11 or different negative and positive control antibodies were added to the cells, in the absence or presence of anti-human Fab fragment (Jackson ImmunoResearch) for cross-linking. The cells were then incubated for 16 hours at 37° C. in a humidified atmosphere of 5% CO2. The cells were harvested and stained for Annexin V-488/Propidium Iodide (Invitrogen, Sweden) and analysed using flow cytometer (FACS Calibur, BD Bioscience).
smiles,measurement,value
"CC(=O)O[C@H]1C(=O)[C@@]2(C)[C@H]([C@H](OC(=O)c3ccccc3)[C@]3(O)C[C@H](OC(=O)[C@H](O)[C@@H](NC(=O)c4ccccc4)c4ccccc4)C(C)=C1C3(C)C)[C@]1(OC(C)=O)CO[C@@H]1C[C@@H]2O [paclitaxel, reference compound]",programmed cell death of normal endothelial cells,induced significant endothelial cell and B cell programmed cell death
